We go through two molecules from US12544387B2, “Methods and compositions for testosterone production” (priority 2023, dated 2026).

Data set [1] deals with endogenous testosterone, LH, and FSH production. The data set can be described thus: Example 3: hormone levels after enclomiphene. As to conditions: 6.25 mg enclomiphene; n=1. Type of data set: in vivo, human. The procedure: This example investigated the effects of administering a SERM (enclomiphene) on endogenous testosterone, LH, and FSH production.
Hormone levels were measured after administration of 6.25 mg of enclomiphene (see Table 3, n=1).

The nature of data set [2]: Testosterone concentration at time points after 200 mg of testosterone (FIG. 1). Here is the method:
FIG. 1 is a phase diagram of the testosterone concentration in a patient at various time points after being administered 200 mg of testosterone.
Hormone levels were measured after co-administration of 200 mg of testosterone and 6.25 mg of enclomiphene for 30 days. Testosterone concentration was measured at +4 hours and +12 hours after administration. […] Testosterone concentration was measured at +4 hours after administration to capture the peak testosterone concentration (cMax) and +12 hours after administration to capture the trough testosterone concentration (cMin) to determine if endogenous testosterone suppression is prevented with the enclomiphene.

Structures are written as SMILES.

Take `CCN(CC)CCOc1ccc(/C(=C(/Cl)c2ccccc2)c2ccccc2)cc1` [enclomiphene]: in data set [1], the “Sex Hormone Binding Globulin” value is listed as 20 nmol/L and the “increase of calculated free testosterone from baseline (114 pg/mL)” value was 73%.

Regarding `C[C@]12CC[C@H]3[C@@H](CCC4=CC(=O)CC[C@@]43C)[C@@H]1CC[C@@H]2O` [testosterone, 17β-hydroxy-4-androsten-3-one], in data set [2], the “time of testosterone peak” value is 3 to 5 h and the “time until testosterone is out of the system” value is no more than 12 h.
